According to patent US6410706B1, “Nucleic acid encoding chitin-binding receptor kinase” (Korea Research Institute of Bioscience and Biotechnology, priority 1999, dated 2002):

Target: recombinant chitinase domain of receptor kinase CHRK1 (amino acid residues 1 to 359 of SEQ ID NO: 1) (Nicotiana tabacum, UniProt Q9SWX8)
Assay: Fluorescence polarization chitin-binding assay with Scatchard plot analysis
Settings: excitation 318 nm, emission 373 nm; for binding to the chitinase domain, seen as change in polarization value: fluorescence polarization, thioredoxin control did not increase
Method: The chitinase activity and the chitin-binding activity of receptor kinase CHRK1 in this invention are analysed using its recombinant chitinase domain. Consequently, the recombinant chitinase domain has a chitin-binding activity and lacks a chitinase activity.
In order to examine the chitinase activity of receptor kinase […], the recombinant chitinase domain corresponding to amino acid residues 1 to 359 of SEQ. ID NO: 1 was purified from E. coli, and its chitinase activity was estimated by fluorescence polarization assay.
As a result of Scratchard plot analysis, dissociation constant (kd) value of MU-chitotriose was estimated to be 800 nM. In case of using MU-chitotriose or MU-chitotetrose probe without fluorophor as a competitor, binding activity between the chitinase domain and MU-chitotriose or MU-chitotetrose conjugated with fluorophor was inhibited by the competitor. Consequently, the initial polarization value was decreased.

Chain of recombinant chitinase domain of receptor kinase CHRK1 (amino acid residues 1 to 359 of SEQ ID NO: 1) (Q9SWX8 entry or part of it): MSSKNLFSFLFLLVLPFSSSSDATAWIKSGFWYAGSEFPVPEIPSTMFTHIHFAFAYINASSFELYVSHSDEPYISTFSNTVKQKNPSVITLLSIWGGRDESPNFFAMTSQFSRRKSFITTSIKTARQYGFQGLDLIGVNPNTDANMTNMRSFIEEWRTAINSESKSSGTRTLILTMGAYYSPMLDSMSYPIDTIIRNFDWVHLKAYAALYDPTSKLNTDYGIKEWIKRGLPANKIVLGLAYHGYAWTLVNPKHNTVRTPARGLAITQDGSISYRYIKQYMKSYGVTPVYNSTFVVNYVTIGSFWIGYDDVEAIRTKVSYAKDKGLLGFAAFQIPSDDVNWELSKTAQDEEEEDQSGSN

Structure (SMILES): CC(=O)N[C@H]1[C@H](Oc2ccc3c(C)cc(=O)oc3c2)O[C@H](CO)[C@@H](O[C@@H]2O[C@H](CO)[C@@H](O[C@@H]3O[C@H](CO)[C@@H](O)[C@H](O)[C@H]3NC(C)=O)[C@H](O)[C@H]2NC(C)=O)[C@@H]1O [MU-chitotriose]
- Kd (Scratchard plot analysis of fluorescence polarization, chitinase domain purified from E. coli, read-out: dissociation constant (kd)): 800 nM
- binding to the chitinase domain, seen as change in polarization value: increased polarization value

Structure (SMILES): CC(=O)NC1C(OC2C(CO)OC(OC3C(CO)OC(OC4C(CO)OC(Oc5ccc6c(C)cc(=O)oc6c5)C(NC(C)=O)C4O)C(NC(C)=O)C3O)C(NC(C)=O)C2O)OC(CO)C(O)C1O (stereo not drawn) [Mu-chitotetrose]
- binding to the chitinase domain, seen as change in polarization value: increased polarization value
